Key:
[1] = target: T1, isolated catalytic core domain (CCD) of IN (Human immunodeficiency virus type 1 group M subtype B, UniProt P12497); test: Disintegration reaction, isolated catalytic core domain; type: biochemical, HIV-1; settings: branched substrate
T1 construct: the isolated catalytic core domain (CCD) (51–212); made in house; host or cells: E. coli RosettaII
From the text: Conventional IN strand transfer inhibitors bind at the interface created by the protein, viral DNA, and two magnesium cations in the catalytic site of the enzyme. Because stilbene disulfonic acid derivatives inhibit both 3′-P and ST with a similar efficiency, they may act outside the IN catalytic site. To determine if IN domains other than the catalytic core domain (CCD) are involved in the inhibitory activity of NSC34931, we tested this compound on disintegration, the only IN-mediated reaction that can be catalyzed by the isolated CCD. Disintegration is equivalent to a reverse-ST reaction (Figure 3A). Using a branched substrate, the WT enzyme as well as the isolated CCD catalyzed disintegration with similar efficiency (Figure 3B). NSC34931 inhibited disintegration catalyzed by the full-length IN at concentrations above 4.1 µM (Figure 3B,C). However, NSC34931 was unable to inhibit disintegration catalyzed by the CCD at concentrations up to 37 µM (Figure 3B,C). These experiments indicate that the N-terminal domain (NTD) and/or the C-terminal domain (CTD) are essential for IN inhibition by NSC34931.
Figure 3 Inhibition of the disintegration reaction by NSC34931. (A) Schematic representation of the disintegration reaction. […]

IN-DNA binding = target: T2, IN-DNA binding (Human immunodeficiency virus type 1 group M subtype B, UniProt P12497); test: IN-DNA binding by fluorescence anisotropy; set-up: species or system HIV-1
T2 construct: 250 nM of recombinant HIV-1 integrase; made in house; host or cells: E. coli RosettaII
From the text: Although the CCD alone harbors all of the structural determinants of the active site to support the catalytic activity, the NTD and CTD have been implicated in both the quaternary architecture of the enzyme and DNA binding. Because outer domains (NTD and/or CTD) appeared important in the inhibition of IN by NSC34931, we wondered if stilbene disulfonic acid derivatives might compete with DNA binding. To test whether NSC34931 competed with substrate binding, we developed a plate-based assay with a fluorescent DNA substrate.
In addition, controls with DMSO (0 µM) or without IN (DNA only) were included. Data represent the mean of three independent experiments.
DNA binding was measured using a plate-based assay as previously described. […] Compounds or DMSO were incubated at room temperature for 5 min in the IN-activity buffer, in the absence or the presence of IN (400 nM). After addition of the DNA (10 nM), fluorescence anisotropy was measured every 30 s for 30 min using an Envision plate reader (Perkin Elmer, Waltham, MA, USA).

[2] = target: T3, isolated catalytic core domain (CCD) (51–212) (Human immunodeficiency virus type 1 group M subtype B, UniProt P12497); test: Schiff base IN-DNA crosslinking assay, isolated CCD; type: binding, HIV-1
T3 construct: the isolated catalytic core domain (CCD) (51–212); made in house; host or cells: E. coli RosettaII
From the text: (§1) To gain further evidence that NSC34931 interferes with DNA binding, and to determine the role of outer domains in this inhibition, we evaluated the ability of NSC34931 to inhibit the formation of IN-DNA crosslinks using our previously described Schiff base assay. Briefly, a deoxyuracyl nucleotide is incorporated in the DNA substrate to generate an abasic site via uracyl DNA glycosylase. IN forms a covalent complex (Schiff base), which can be stabilized by reduction with sodium borohydride (Figure 5A). Full-length IN, but also the isolated CCD or CTD domains, can crosslink DNA ([…]). Consistent with anisotropy data, NSC34931 suppresses the formation of IN-DNA crosslinks in the context of the full-length IN (Figure 5B, upper gel). Of note, the effective dose to inhibit this reaction is similar to that needed to inhibit 3′-P or ST (about 0.45 µM). In contrast, the IN CCD requires a 10 times higher concentration of compound to prevent DNA crosslinking, confirming that the NTD or the CTD are important for NSC34931 inhibition. Lastly, the same experiment was conducted with the isolated CTD (Figure 5B, lower gel).
(§2) Figure 5 Inhibition of IN-DNA binding by NSC34931. (A) Principle of the Schiff base crosslinking assay. An abasic site was introduced by uracil DNA glycosylase in the DNA substrate at the -12 position. […]

[3] = target: T4, isolated C-terminal domain (CTD) (220–288) (Human immunodeficiency virus type 1 group M subtype B, UniProt P12497); test: Schiff base IN-DNA crosslinking assay, isolated CTD; type: binding, HIV-1
T4 construct: the isolated C-terminal domain (CTD) (220–288); made in house; host or cells: E. coli RosettaII
From the text: as §1, §2

## O=S(=O)(O)c1cc(/N=N/c2cc(S(=O)(=O)O)c3ccccc3c2O)ccc1/C=C/c1ccc(/N=N/c2cc(S(=O)(=O)O)c3ccccc3c2O)cc1S(=O)(=O)O [NSC34931]
[1]
  concentration up to which disintegration is not inhibited: > 37 µM
IN-DNA binding
  fold lower concentration for IN-DNA binding inhibition than for inhibition of 3'-P and ST: about 10
IN-DNA binding; fluorescence anisotropy
  concentration giving full inhibition of IN-DNA binding: 51 nM
IN-DNA binding; fluorescence anisotropy over 30 min
  effect on IN substrate (DNA) binding: strongly and durably prevented IN-DNA binding
[2]
  fold higher concentration required to prevent DNA crosslinking vs full-length IN: 10
[3]
  inhibition of CTD-DNA crosslinks: in the same concentration range than in the context of the full-length enzyme

— publication PMC6832134, “Discovery of Novel Integrase Inhibitors Acting outside the Active Site Through High-Throughput Screening” (Molecules, 2019)
